How the values were obtained:
[1] = tested on: Shionogi mouse mammary carcinoma cells; test: Androgenic activity: stimulation of proliferation of Shionogi cells; type: cell-based
Procedure: In column 9, the androgenic activity of preferred type 5 inhibitors expressed as the percentage of stimulation of proliferation of Shionogi cells at concentrations of 10^−7 M (left number) and 10^−6 M (right number) of inhibitor. The manner in which the stimulation is determined is described in “Other Tests; B-Androgenic/Antiandrogenic Activity”. Lower numbers are desirable. ND means that a determination was not done.
Androgenic/antiandrogenic activity of some preferred compounds has been measured using the Shionogi mouse mammary carcinoma cells.
Minimal essential culture medium (MEM), non-essential amino acids, and fetal calf serum were purchased from Flow Laboratories. In order to remove endogenous steroids, serum was incubated overnight at 4° C. with 1% activated charcoal (Norit A, Fisher) and 0.1% Dextran T-70 (Pharmacia). A 2-h supplementary adsorption was performed at 25° C. in order to further remove protein-bound steroids. Serum was also inactivated by a 20-min incubation at 56° C.
5α-dihydrotestosterone (DHT) was obtained from Steraloids. The antiandrogen hydroxyflutamide (OH-FLU) was kindly supplied by Drs. T. L. Nagabuschan and R. Neri (Schering Corporation, Kenilworth, U.S.A.).
Shionogi male mice bearing androgen-sensitive mammary tumors were obtained from Drs. Keishi Matsumoto, Osaka, Japan, and Yvonne Lefebvre, Ottawa, Canada. For primary culture, tumors were excised and washed in ice-cold sterile 25 mM Hepes buffer (137 mM NaCl; 5 mM KCl; 0.7 mM Na2HPO4; 10 mM glucose, pH 7.2). After mincing with scissors, the tumor minces were digested for 2 h at 37° C. in Hepes buffer containing 3.8 mg/ml collagenase (Clostridium, Boehringer), 1.5 mg/ml hyaluronidase II (Sigma), and 3% bovine serum albumin fraction V (Schwartz-Mann). Dispersed cells were collected by centrifugation (500×g for 10 min), washed twice by suspension in minimal essential medium (MEM) containing 5% dextran-coated charcoal-treated fetal calf serum (DCC-FCS), 1% non-essential amino acids, 10 IU/ml penicillin, 50 μg/ml streptomycin, and 100 nM dihydrotestosterone (DHT) (Steraloids).
Cells were plated in the same medium at a density of 75 000 cells/ml in 75 cm^2 flasks under an atmosphere of 5% carbon dioxide in air at 37° C. The medium was changed weekly. The steroids and antisteroids were dissolved in ethanol and kept in stock solutions chosen to yield final ethanol concentrations less than 0.01% in the culture medium.
Cells were subcultured at near-confidence by gentle digestion in a solution of 0.1% pancreatin (Flow Laboratories) in Hepes buffer containing 3 mM ethylenediaminetetraacetic acid (EDTA) (pH 7.2). Cells were pelleted by centrifugation, resuspended in culture medium, counted in a Coulter counter, and replated as described above. Soft agar cloning was performed as described (Stanley et al., Cell 10: 35-44, 1977) in the presence of 100 nM DHT.
Cells were plated in 24-well plates at a density of 20 000 cells/well. The indicated increasing concentrations of agents were added to triplicate dishes, and cells were grown for 10-12 days with changes of medium every 3-4 days. Cell number was measured by direct counting in a Coulter counter.
ED50 values of action of DHT and glucocorticoids were calculated according to a least-square regression as described (Rodbard, Endocrinology 94: 1427-1431, 1974). Statistical significance was calculated according to a multiple-range test (Kramer, Biometrics 12: 307-310,1956).

[2] = target: T1, estrogen receptor (Rattus norvegicus, UniProt P06211); test: Estrogen receptor (ER) assay: inhibition of [3H]E2 binding, uterine cytosol
T1 construct: from tissue; host or cells: uterine cytosol of gonadectomized female Sprague-Dawley rats
T1 sequence (P06211 1-600): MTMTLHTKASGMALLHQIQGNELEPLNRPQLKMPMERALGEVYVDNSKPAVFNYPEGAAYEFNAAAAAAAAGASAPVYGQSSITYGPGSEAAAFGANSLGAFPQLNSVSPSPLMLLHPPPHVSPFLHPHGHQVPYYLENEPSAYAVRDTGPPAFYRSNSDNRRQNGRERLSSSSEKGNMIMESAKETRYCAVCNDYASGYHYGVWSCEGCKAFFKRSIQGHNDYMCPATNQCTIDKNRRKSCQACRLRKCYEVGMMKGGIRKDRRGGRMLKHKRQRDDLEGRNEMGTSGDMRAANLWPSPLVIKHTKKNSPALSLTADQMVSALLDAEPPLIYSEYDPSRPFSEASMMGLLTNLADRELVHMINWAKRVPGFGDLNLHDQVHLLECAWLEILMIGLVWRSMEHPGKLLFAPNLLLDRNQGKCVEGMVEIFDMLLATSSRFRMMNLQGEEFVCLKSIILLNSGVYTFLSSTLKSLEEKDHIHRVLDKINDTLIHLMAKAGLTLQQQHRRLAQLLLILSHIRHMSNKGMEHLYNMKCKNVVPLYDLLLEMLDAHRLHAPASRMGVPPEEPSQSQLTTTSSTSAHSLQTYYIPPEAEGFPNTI
Procedure: Female Sprague-Dawley rats (Crl: CD(SD)Br) weighing 200-300 g were obtained from Charles-River Inc. (St-Constant, Québec, Canada). The rats were gonadectomized under general anesthesia (Isoflurane) and killed by cervical dislocation 24 hours later. The uteri were rapidly removed, dissected free from adhering tissue and frozen on dry-ice. Uteri were kept at −80° C. until assay. All subsequent steps were performed at 0-4° C. Uteri were homogenized in 10 vol (wt/vol) of buffer A (25 mM Tris-HCI, 1.5 mM EDTA disodium salt, 10 mM α-monothioglycerol, 10% glycerol, and 10 mM sodium molybdate, pH 7.4), using a Polytron PT-10 homogenizer (Brinkman Instruments, Canada) at a setting of 5 for three periods of 10 sec, with intervals of 10 sec for cooling. The homogenate was then centrifuged at 105,000×g for 60 min in a Beckman L5-65 ultracentrifuge (Fullerton, Calif.). The protein concentration of the cytosol fraction was measured according to the method of Bradford (Anal. Biochem. 72: 248-254, 1976), using bovine serum albumin as standard.
Estrogen binding was measured using the dextran-coated charcoal adsorption technique as described previously (Asselin et al., Endocrinology, 101: 666-671, 1977; Asselin and Labrie, J. Steroid Biochem., 9: 1079-1082, 1978). Briefly, [^3H]E2 solubilized in ethanol were diluted into buffer A. Aliquots of uterine cytosol preparation (0.1 ml) were incubated with 5 nM [^3H]E2 (˜200,000 cpm, 0.1 ml) in the presence or absence of the indicated concentrations of unlabeled compounds (0.1 ml, prepared in buffer A containing 10% ethanol) for 3 h at room temperature. Unbound steroids were then separated by incubation for 15 min at 0-4° C. with 0.3 ml 0.5% Norit-A and 0.05% Dextran T-70 in buffer B (1.5 mM EDTA disodium salt, 10 mM monothioglycerol, and 10 mM Tris-HCI, pH 7.4) and centrifuged at 3,000×g for 15 min. Aliquots of the supernatant (0.3 ml) were removed for radioactivity measurement.

Compound | Androgenic Activity Shionogi, Basal E^−6 ([1]; Table 4′, E^−6) | Androgenic Activity Shionogi, Basal E^−7 ([1]; Table 4′, E^−7) | other results
CC12C=CC(=O)C=C1C=CC1C2CCC2(C)C(=O)C3(CCCCC3)CC12 (stereo not shown) [CS-204] |  |  | Androgenic Activity Shionogi, Basal E^−6 ([1]; E^−6): −17; Androgenic Activity Shionogi, Basal E^−7 ([1]; E^−7): 0; % Inhibition Estrogen Receptor E^−6 ([2]; E^−6): 0%; % Inhibition Estrogen Receptor E^−8 ([2]; E^−8): 0%
CC1(C)CCC2(CCC3C4CCc5ccccc5C4CCC32C)OC1=O (stereo not shown) [CS-224] | 0% | 17% | % Inhibition Estrogen Receptor E^−6 ([2]; Table 4′, E^−6): 2%; % Inhibition Estrogen Receptor E^−8 ([2]; Table 4′, E^−8): 0%
CC(=O)O[C@]1(C)C(=O)CCC2C3C=C(C)C4=CC(=O)C=C[C@]4(C)C3CC[C@@]21C (stereo partly shown) [CS-237] |  |  | Androgenic Activity Shionogi, Basal E^−6 ([1]; E^−6): −29; Androgenic Activity Shionogi, Basal E^−7 ([1]; E^−7): −22; % Inhibition Estrogen Receptor E^−6 ([2]; E^−6): 0%; % Inhibition Estrogen Receptor E^−8 ([2]; E^−8): 0%
CSCCOc1ccc2c(c1)CCC1C2CCC2(C)C1CCC21CCCC(=O)O1 [CS-242, 3-Methylthioethyloxy-1,3,5(10)-estratrien-17(R)-spiro-2′-(6′-oxo) Tetrahydropyran] | −32% | 0% | % Inhibition Estrogen Receptor E^−6 ([2]; Table 4′, E^−6): 0%; % Inhibition Estrogen Receptor E^−8 ([2]; Table 4′, E^−8): 0%
CCC(=O)O[C@]1(C(C)=O)CCC2C3C=C(C)C4=CC(=O)C[C@H](C)[C@]4(C)C3CC[C@@]21C (stereo partly shown) [CS-243] |  |  | Androgenic Activity Shionogi, Basal ([1]; E^−6): −23; Androgenic Activity Shionogi, Basal ([1]; E^−7): −13; % Inhibition Estrogen Receptor ([2]; E^−6): 0%; % Inhibition Estrogen Receptor ([2]; E^−8): 1%
CCCC(=O)OC1(C(C)=O)CCC2C3C=C(C)C4=CC(=O)CC(C)C4(C)C3CCC21C (stereo not shown) [CS-245] |  |  | Androgenic Activity Shionogi, Basal ([1]; E^−6): −34; Androgenic Activity Shionogi, Basal ([1]; E^−7): −28; % Inhibition Estrogen Receptor ([2]; E^−6): 2%; % Inhibition Estrogen Receptor ([2]; E^−8): 0%
C[C@]12CCC3c4ccc(O)cc4CCC3C1CC[C@@]21CCCC(=O)O1 (stereo partly drawn) [EM-919, 1,3,5(10)-estratrien-3-ol-17(R)-spiro-2′(6′-oxo)tetrahydropyran] | −17% | +73% | % Inhibition Estrogen Receptor *E^−5 ([2]; Table 4′, starred values, E^−5): 90* %; % Inhibition Estrogen Receptor *E^−7 ([2]; Table 4′, starred values, E^−7): 07* %
CC1=C[C@@H]2[C@H](CC[C@]3(C)C(=O)C4(CCCCC4)C[C@@H]23)[C@@]2(C)CCC(=O)C=C12 [EM-925] |  |  | Androgenic Activity Shionogi, Basal E^−6 ([1]; E^−6): −4; Androgenic Activity Shionogi, Basal E^−7 ([1]; E^−7): 11
COCCOc1cc2c(cc1F)C1CCC3(C)C(CCC34CCC(C)(C)C(=O)O4)C1CC2 (stereo not shown) [EM-1393-CS] | −10% | 88% | 
CC1(C)CCC2(CCC3C4CCc5cc(C(=O)OCc6ccccc6)ccc5C4CCC32C)OC1=O (stereo not shown) [EM-1398] | −10% | 13% | 
COc1cc2c(cc1C(F)(F)F)C1CCC3(C)C(CCC34CCC(C)(C)C(=O)O4)C1CC2 [EM-1409, 3-Methoxy-2-trifluoromethyl-1,3,5(10)-estratrien-17(R)-spiro-2′-(5′,5′-dimethyl-6′-oxo)tetrahydropyran] | −23% | 5% | 
CC1(C)CCC2(CCC3C4CCc5cc(O)c(C#N)cc5C4CCC32C)OC1=O (stereo not shown) [EM-01645] | 35% | −5% | 
CC1(C)CCC2(CCC3C4CCc5cc(O)c(C(N)=O)cc5C4CCC32C)OC1=O (stereo not shown) [EM-01660] | −31% | −4% | 
CN(C)C(=O)c1cc2c(cc1O)CCC1C2CCC2(C)C1CCC21CCC(C)(C)C(=O)O1 (stereo not shown) [EM-01661-B] | −13% | 0% | 
COC(=O)c1cc2c(cc1O)CCC1C2CCC2(C)C1CCC21CCC(C)(C)C(=O)O1 (stereo not shown) [EM-01662] | −27% | 0% | 
CC12CCC3c4ccc(O)cc4CCC3C1CCC21CC=CC(=O)O1 [PB-132-140, 3-hydroxy-1,3,5(10)-estratrien-17(R)-spiro-2′-(4′,5′-dihydro-6′-oxo)pyran] | −18% | 30% | 
CC1CC(=O)OC2(CCC3C4CCc5cc(O)ccc5C4CCC32C)C1 [PB-132-142, 3-Hydroxy-1,3,5(10)-estratrien-17(R)-spiro-2′-(4′-methyl-6′-oxo)tetrahydropyran] | −17% | 25% | 
COC(=O)C1CCC2(CCC3C4CCc5cc(O)ccc5C4CCC32C)OC1=O [PB-132-146, 3-Hydroxy-1,3,5(10)-estratrien-17(R)-2′-(5′-methoxycarbonyl-6′-oxo)tetrahydropyran] | 0% | 29% | 
C=CCC1CCC2(CCC3C4CCc5cc(O)ccc5C4CCC32C)OC1=O [PB-132-152, 3-Hydroxy-1,3,5(10)-estratrien-17(R)-2′-(5′-allyl-6′-oxo)tetrahydropyran] | 0% | 39% | 
